Source: patent publication US8426437B2, “Pyrroloquinoline derivatives and their use as protein kinases inhibitors” (Pierre Fabre Medicament, priority 2005, dated 2013)
One block for each molecule: values may come before it.

Assays:
PIM-1 = biological target: T1, PIM-1 (Homo sapiens, UniProt P11309); assay: Inhibition of kinase PIM-1 (Kinase-Glo); format: biochemical; details: PIM-1 0.625 μg/ml, 10 μM ATP, forty minutes at 30° C.
T1 construct: purchased Upstate 14-573
In short: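 PIM-1 (0.625 μg/ml) in MOPS/NaOH pH 7 with Mg acetate was run with 70 μM S6 kinase/Rsk2 peptide and 10 μM ATP, with compound at 10 nM–30 μM final.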

RET (h) = biological target: T2, RET (h) (Homo sapiens, UniProt P07949); assay: Upstate kinase panel: RET; format: biochemical; details: compound 20 μM, 10 μM ATP, read-out: % inhibition at 20 μMol
T2 construct: purchased Upstate
T2 sequence (P07949 29-1114): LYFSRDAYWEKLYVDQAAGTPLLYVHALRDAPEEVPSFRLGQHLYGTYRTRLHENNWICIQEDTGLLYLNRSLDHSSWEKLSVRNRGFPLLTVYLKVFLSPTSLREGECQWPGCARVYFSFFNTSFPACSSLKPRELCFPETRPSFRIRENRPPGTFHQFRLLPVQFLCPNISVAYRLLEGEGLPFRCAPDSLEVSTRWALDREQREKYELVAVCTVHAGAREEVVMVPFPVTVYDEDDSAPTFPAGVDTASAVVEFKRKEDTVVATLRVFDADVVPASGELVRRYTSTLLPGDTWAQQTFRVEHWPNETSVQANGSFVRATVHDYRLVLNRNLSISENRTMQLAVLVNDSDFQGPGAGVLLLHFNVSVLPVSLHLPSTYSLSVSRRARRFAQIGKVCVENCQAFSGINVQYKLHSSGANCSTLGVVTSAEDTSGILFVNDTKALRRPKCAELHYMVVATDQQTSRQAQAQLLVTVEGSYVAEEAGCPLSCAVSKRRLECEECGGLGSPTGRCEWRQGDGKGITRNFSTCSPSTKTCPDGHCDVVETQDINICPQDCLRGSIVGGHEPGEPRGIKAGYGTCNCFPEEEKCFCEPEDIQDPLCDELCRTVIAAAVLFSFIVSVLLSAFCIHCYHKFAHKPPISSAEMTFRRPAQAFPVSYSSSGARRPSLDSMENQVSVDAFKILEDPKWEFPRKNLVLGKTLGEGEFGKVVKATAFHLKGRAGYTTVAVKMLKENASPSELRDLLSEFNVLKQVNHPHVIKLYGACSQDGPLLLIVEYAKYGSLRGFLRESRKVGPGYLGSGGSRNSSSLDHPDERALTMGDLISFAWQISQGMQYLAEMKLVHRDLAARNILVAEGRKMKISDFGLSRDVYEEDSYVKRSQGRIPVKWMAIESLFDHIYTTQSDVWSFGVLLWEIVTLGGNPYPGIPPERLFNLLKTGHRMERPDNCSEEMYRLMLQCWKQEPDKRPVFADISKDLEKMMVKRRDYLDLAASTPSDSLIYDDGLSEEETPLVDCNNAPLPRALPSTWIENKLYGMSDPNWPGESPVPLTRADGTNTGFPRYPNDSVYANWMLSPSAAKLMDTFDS
Protocol: (§1) These kinases are produced by Upstate and screened according to the respective protocols indicated by the supplier (http://www.upstate.com/features/kp_protocols.asp). Examples 1, 12, 166 and 238 were tested at a concentration of 20 μM, 10 μM, 1 μM and 1 μM respectively in the presence of 10 μM of ATP for examples 1 and 12 and at the concentrations of ATP shown in parentheses for examples 166 and 238. The results shown in Table VII correspond to percentage inhibition of the kinase tested in the presence of the compound, relative to a control effected without the compound.

Met (h) = biological target: T3, Met (h) (Homo sapiens, UniProt P08581); assay: Upstate kinase panel: Met; format: biochemical; details: compound 20 μM, 10 μM ATP, read-out: % inhibition at 20 μMol
T3 construct: purchased Upstate
T3 sequence (P08581 25-1390): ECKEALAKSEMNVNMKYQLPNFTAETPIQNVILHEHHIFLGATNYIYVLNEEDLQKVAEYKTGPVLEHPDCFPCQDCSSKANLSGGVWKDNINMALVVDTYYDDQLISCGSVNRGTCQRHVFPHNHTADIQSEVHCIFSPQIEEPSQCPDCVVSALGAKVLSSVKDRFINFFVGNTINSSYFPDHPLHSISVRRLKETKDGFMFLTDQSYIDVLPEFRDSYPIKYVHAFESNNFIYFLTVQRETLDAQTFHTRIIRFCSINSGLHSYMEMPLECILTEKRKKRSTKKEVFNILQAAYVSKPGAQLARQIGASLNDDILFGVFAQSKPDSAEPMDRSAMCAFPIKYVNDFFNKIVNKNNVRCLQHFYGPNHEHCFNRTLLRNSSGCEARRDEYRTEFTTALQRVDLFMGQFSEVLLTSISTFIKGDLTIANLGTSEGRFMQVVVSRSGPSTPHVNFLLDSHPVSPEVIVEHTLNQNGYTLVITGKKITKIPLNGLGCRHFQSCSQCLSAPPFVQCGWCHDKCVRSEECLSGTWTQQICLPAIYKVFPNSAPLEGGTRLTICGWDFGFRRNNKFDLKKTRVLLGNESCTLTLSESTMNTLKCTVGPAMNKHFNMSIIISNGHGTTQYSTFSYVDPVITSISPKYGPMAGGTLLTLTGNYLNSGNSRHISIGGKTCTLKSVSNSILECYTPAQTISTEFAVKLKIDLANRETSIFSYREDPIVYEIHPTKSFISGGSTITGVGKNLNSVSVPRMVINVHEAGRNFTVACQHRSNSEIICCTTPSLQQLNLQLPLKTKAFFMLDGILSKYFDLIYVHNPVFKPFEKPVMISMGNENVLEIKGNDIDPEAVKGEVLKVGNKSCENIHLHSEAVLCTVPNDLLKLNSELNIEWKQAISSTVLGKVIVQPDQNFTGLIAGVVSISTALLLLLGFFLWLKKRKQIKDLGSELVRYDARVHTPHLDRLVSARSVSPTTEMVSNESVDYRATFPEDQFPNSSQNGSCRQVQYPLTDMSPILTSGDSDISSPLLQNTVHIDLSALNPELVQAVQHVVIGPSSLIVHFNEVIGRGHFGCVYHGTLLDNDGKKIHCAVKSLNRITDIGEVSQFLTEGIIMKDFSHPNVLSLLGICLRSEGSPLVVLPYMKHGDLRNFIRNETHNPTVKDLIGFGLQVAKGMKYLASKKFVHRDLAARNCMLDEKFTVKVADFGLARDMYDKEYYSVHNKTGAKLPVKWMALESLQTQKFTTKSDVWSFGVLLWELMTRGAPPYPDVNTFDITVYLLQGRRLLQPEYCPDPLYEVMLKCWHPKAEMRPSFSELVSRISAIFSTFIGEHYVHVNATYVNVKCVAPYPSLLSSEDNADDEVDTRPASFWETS
Protocol: as §1

Hck (h) = biological target: T4, Hck (h) (Homo sapiens, UniProt P08631); assay: Upstate kinase panel: Hck; format: biochemical; details: compound 10 μM, 10 μM ATP, read-out: % inhibition at 10 μMol
T4 construct: purchased Upstate
T4 sequence (P08631 whole entry): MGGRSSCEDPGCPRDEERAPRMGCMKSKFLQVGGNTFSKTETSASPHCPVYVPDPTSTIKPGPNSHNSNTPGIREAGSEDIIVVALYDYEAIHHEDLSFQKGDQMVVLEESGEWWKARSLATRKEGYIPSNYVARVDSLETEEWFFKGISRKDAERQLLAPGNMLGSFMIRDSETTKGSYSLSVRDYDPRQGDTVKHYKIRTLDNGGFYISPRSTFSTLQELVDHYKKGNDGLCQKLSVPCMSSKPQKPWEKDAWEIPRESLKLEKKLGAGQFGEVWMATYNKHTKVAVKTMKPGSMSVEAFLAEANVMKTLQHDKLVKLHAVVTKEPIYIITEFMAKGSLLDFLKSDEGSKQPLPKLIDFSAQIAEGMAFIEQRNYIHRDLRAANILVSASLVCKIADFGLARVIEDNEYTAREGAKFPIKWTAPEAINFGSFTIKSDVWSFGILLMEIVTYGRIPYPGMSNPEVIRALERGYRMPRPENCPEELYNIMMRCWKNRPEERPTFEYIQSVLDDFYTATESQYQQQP
Protocol: as §1

ALK = ALK (Homo sapiens, UniProt Q9UM73); assay: Inhibition of kinase ALK (PLCγ1-GST substrate, anti-phosphotyrosine ELISA); format: biochemical; details: ALK 180 ng/ml, 250 μM ATP, 30 minutes at 30° C.
Sequence of ALK (Q9UM73 19-1620, species assumed): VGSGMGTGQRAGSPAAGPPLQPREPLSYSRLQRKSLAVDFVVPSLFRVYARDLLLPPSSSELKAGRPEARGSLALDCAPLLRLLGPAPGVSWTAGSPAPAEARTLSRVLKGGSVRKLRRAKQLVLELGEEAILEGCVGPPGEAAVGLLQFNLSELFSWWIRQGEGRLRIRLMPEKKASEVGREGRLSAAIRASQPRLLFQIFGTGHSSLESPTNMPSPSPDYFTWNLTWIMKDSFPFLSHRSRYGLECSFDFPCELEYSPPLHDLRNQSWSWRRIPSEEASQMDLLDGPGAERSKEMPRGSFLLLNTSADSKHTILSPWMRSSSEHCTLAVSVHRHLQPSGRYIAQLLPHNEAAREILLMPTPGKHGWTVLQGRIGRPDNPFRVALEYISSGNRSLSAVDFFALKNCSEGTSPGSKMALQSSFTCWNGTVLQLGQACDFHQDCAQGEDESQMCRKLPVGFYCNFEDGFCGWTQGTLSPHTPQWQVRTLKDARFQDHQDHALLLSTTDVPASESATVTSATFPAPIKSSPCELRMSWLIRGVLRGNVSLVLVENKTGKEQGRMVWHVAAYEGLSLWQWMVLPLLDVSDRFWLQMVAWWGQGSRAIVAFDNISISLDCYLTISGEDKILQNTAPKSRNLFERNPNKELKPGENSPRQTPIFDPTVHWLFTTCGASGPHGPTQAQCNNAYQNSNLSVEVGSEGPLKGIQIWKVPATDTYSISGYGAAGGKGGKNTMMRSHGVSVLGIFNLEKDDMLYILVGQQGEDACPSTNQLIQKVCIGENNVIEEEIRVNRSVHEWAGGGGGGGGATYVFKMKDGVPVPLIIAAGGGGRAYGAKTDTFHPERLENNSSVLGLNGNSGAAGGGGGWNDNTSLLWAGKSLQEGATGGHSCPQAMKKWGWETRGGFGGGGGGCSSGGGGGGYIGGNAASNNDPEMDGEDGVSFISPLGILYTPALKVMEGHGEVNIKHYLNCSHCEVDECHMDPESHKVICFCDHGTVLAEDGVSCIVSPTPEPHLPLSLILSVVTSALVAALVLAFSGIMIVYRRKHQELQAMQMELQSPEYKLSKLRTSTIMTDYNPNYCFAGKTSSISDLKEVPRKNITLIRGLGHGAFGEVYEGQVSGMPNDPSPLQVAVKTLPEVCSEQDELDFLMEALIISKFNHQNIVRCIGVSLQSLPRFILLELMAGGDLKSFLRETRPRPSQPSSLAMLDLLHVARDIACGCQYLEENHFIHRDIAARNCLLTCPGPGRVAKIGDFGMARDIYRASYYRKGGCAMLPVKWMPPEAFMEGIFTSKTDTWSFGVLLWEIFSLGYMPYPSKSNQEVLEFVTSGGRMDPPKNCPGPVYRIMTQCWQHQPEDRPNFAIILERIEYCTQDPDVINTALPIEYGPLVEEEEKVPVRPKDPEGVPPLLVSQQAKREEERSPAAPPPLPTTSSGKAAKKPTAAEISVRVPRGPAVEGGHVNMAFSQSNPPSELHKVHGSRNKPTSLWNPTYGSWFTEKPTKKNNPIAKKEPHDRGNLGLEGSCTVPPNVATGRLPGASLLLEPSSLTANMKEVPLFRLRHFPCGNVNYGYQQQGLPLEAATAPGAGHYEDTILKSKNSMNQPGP
Protocol: Incubation is carried out for 30 minutes at 30° C. with agitation.
The signal is read in luminescent mode using a luminometer.

H69 = assay: WST test, inhibition of proliferation of H69; format: cell-based; details: Homo sapiens, NCI-H69, 96 h; line H69, tissue of origin Lung (SCLC); four days of incubation, WST-1
Protocol: (§2) The inhibition of the proliferation of cell lines by certain compounds of the invention was tested. […] In the example, the lines used were derived from cancers of the uterus, central nervous system, colon, stomach, head and neck, lung, breast, pancreas, and kidney, as well as from lymphoma, myeloma, pleura, or from melanoma.
(§3) The WST test for measuring cell proliferation and viability (Roche Applied Science) is based on cleavage of a tetrazolium salt by the mitochondrial dehydrogenases in viable cells.
(§4) After four days of incubation of the compounds with the cell line, 14 μl of WST-1 reagent is added to each well and the plates are incubated for four hours at 37° in humid atmosphere at 5% CO2. The level of formazan formed is then determined by spectrophotometry at 450 nm whereas a reference is measured at 650 nm. A control with untreated cells is represented by six wells per plate and the group of treated cells is produced in triplicate for each of the concentrations measured.
(§5) The compounds are tested at five concentrations between 10 nM and 100 μM and two cytotoxic agents are used as controls: adriamycin and 5-fluorouracil.

1752L = assay: WST test, inhibition of proliferation of 1752L; format: cell-based; details: 96 h; line 1752L, tissue of origin Pleuromesothelium; four days of incubation, WST-1
Protocol: as §2, §3, §4, §5

MDA-468 = assay: WST test, inhibition of proliferation of MDA-468; format: cell-based; details: 96 h; line MDA-468, tissue of origin Breast; four days of incubation, WST-1
Protocol: as §2, §3, §4, §5

MDA-453 = assay: WST test, inhibition of proliferation of MDA-453; format: cell-based; details: 96 h; line MDA-453, tissue of origin Breast; four days of incubation, WST-1
Protocol: as §2, §3, §4, §5

536L = assay: WST test, inhibition of proliferation of 536L; format: cell-based; details: 96 h; line 536L, tissue of origin Head/neck; four days of incubation, WST-1
Protocol: as §2, §3, §4, §5

SW756 = assay: WST test, inhibition of proliferation of SW756; format: cell-based; details: Homo sapiens, 96 h; line SW756, tissue of origin Cervix; four days of incubation, WST-1
Protocol: as §2, §3, §4, §5

SKUT1B = assay: WST test, inhibition of proliferation of SKUT1B; format: cell-based; details: Homo sapiens, 96 h; line SKUT1B, tissue of origin Uterus; four days of incubation, WST-1
Protocol: as §2, §3, §4, §5

SKNAS = assay: WST test, inhibition of proliferation of SKNAS; format: cell-based; details: Homo sapiens, SK-N-AS, 96 h; line SKNAS, tissue of origin CMS; four days of incubation, WST-1
Protocol: as §2, §3, §4, §5

CAPAN2 = assay: WST test, inhibition of proliferation of CAPAN2; format: cell-based; details: Homo sapiens, Capan-2, 96 h; line CAPAN2, tissue of origin Pancreas; four days of incubation, WST-1
Protocol: as §2, §3, §4, §5

HT144 = assay: WST test, inhibition of proliferation of HT144; format: cell-based; details: Homo sapiens, HT-144, 96 h; line HT144, tissue of origin Melanoma; four days of incubation, WST-1
Protocol: as §2, §3, §4, §5

T1 sequence (P11309 whole entry): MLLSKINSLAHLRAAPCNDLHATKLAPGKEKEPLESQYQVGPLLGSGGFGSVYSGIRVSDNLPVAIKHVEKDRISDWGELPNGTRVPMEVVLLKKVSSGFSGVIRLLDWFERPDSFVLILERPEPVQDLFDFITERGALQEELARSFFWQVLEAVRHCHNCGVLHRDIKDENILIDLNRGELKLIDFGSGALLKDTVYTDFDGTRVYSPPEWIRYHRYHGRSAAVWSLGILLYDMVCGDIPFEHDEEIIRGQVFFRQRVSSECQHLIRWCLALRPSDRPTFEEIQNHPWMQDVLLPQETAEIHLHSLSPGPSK

IC50 (PIM-1): 10 to 100 µM
inhibition at 20 µM (RET (h)): 99%
inhibition at 20 µM (Met (h)): 52%
SMILES: CCOC(=O)c1c[nH]c2c(=O)[nH]c3ccccc3c12 [Compound 1, 4-Oxo-4,5-dihydro-3H-pyrrolo[2,3-c]quinoline-1-ethyl carboxylate]

inhibition at 10 µM (Hck (h)): 91%
IC50 (ALK): 0.1 to 1 µM
SMILES: CCOC(=O)c1c[nH]c2c(=O)[nH]c3ccc(S(=O)(=O)Nc4ccc(F)cc4)cc3c12 [Compound 12, 8-(4-Fluorophenylsulfamoyl)-4-oxo-4,5-dihydro-3H-pyrrolo[2,3-c]quinoline-1-ethyl carboxylate]

IC50 (SW756): 35 µM
IC50 (SKUT1B): 33 µM
IC50 (SKNAS): 12 µM
IC50 (HT144): 31 µM
SMILES: CCOC(=O)c1c[nH]c2c(=O)[nH]c3ccc(-c4cccc(S(C)(=O)=O)c4)cc3c12 [Compound 238, 8-(3-Methanesulfonyl-phenyl)-4-oxo-4,5-dihydro-3H-pyrrolo[2,3-c]quinoline-1-ethyl carboxylate]
IC50 (H69): 0.5 µM
IC50 (1752L): 35 µM
IC50 (MDA-468): 38 µM
IC50 (MDA-453): 7 µM
IC50 (536L): 36 µM
IC50 (CAPAN2): 47 µM
